Results: patent publication US8097238B2, “Cell targeting conjugates” (Peter MacCallum Cancer Institute, priority 2004, dated 2012)
“And” between values parts separate entries of the source, which are not always exact repeats. Equal values may be shown once. Starred links: 1 amine or outer side, 2 acyl side, 3 side chain; linkers in the order of their positions; H or OH if unused. Positions of bridges follow the written chain, without caps; N, C: chain ends. Non-standard residues stand in square brackets, D forms with d. Residues, ends and D or L forms follow the SMILES beside them. Chains are numbered I, II in the order given. Actinocin(9to1) = Cc1c2oc3c(C)ccc(C(=O)[*:1])c3nc-2c(C(=O)[*:2])c(N)c1=O; NMeV = CN[C@H](C(=O)O)C(C)C; Sar = CNCC(=O)O

Tests used:
K562 cells [1] = experiment: Accumulation of cell-associated ^125I-activity in K562 cells; assay type: cell-based, human; conditions: 200 nM protein, 37° C.
Method: At the required time intervals (0-20 hours), the cell-associated and extracellular ^125I-ligands were separated by centrifugation at 400×g for 3 minutes and the cell-associated ^125I-activity and the ^125I-activity in the supernatants were counted in a […] (80% counting efficiency; Perkin Elmer Inc.). To elucidate whether the meta-^127I/^125I-iodoHoechst-transferrin conjugates were internalized specifically via transferrin receptor mediated endocytosis, assays were performed in parallel in the presence of 100-fold molar excess of unlabelled diferric transferrin.
In parallel with the experiment described in Example 19, cultures of K562 cells with one of the three labeled DNA ligand—transferring conjugates were incubated at 0° C., a condition that inhibits receptor-mediated endocytosis. Other assays were performed in parallel at 37° C. in the presence of the metabolic inhibitors […] (50 mM) and sodium azide (0.1% (w/v)), which are known to inhibit transferrin receptor mediated endocytosis (Ciechanover, et al. 1983).

K562 nuclei [2] = experiment: Accumulation of nuclear-associated ^125I-activity in K562 nuclei; assay type: cell-based, human; conditions: 200 nM protein, 37° C.
Method: After incubation for 5 minutes at 0° C., an equal volume of hypotonic buffer containing 1% (v/v) Triton X-100 was added while vortexing, and the cells were sheared by passage through a 22-gauge needle. The nuclei were separated from the cytosol by centrifugation at 1000×g for 10 minutes and the nuclear preparations were washed in hypotonic buffer and pipetted to avoid clumping. The concentration of nuclei isolated from each sample was determined by counting with a hemocytometer and the nuclear- and cytoplasm-associated ^125I-activity was determined by β-counting. In parallel assays, the nuclei were washed with 10 mM Tris-HCl, 140 mM NaCl, pH 8.3 (isotonic buffer) by centrifugation at 1000×g for 10 minutes and the nuclear associated ^125I-activity and the ^125I-activity in the supernatants was determined by β-counting.

K562 cells [3] = experiment: Clonogenic survival of K562 cells after ^125I-ligand incubation; assay type: cell-based, human; conditions: 20 hours at 37° C., 200 nM protein
Method: K562 cells were washed three times in serum-free RPMI 1640 containing 20 mM HEPES and 80 I.U./ml gentamicin. In the representative experiment, cells (5×10^5 per ml) were incubated with a series of radioactive doses of ^125I-diferric transferrin (highest dose 3.8 μCi/ml; specific activity 18.9 Ci/mmole, 200 nM protein concentration) or with a series of radioactive doses of the required meta-^127I/^125I-iodoHoechst-transferrin conjugate (highest doses 17.5, 10.1 and 18.3 μCi/ml, specific activities 87.5, 53.3 and 98 Ci/mmole protein for the disulphide, acylhydrazone and amide linked meta-^127I/^125I-iodoHoechst-transferrin conjugates, respectively, protein concentration 200 nM, conjugation number 2.8, 2.9 and 3.1 for the disulphide, acylhydrazone and amide linked conjugates, respectively) for 20 hours at 37° C. To ensure that cytotoxicity was mediated by decay of ^125I, control assays were performed in parallel with unlabelled meta-^127I-iodoHoechst-transferrin conjugates. Furthermore, to determine whether the ^125I-induced cytotoxicity was mediated by transferrin receptor-mediated endocytosis, control assays were performed in parallel in the presence of a 50-fold molar excess of unlabelled diferric transferrin. Following incubation, the cell-pellets were isolated by centrifugation at 400×g for 3 minutes and suspended in the α-modification of Eagle's medium containing 20% (v/v) fetal bovine serum, 20 mM HEPES, 2 mM L-glutamine and 80 I.U./ml gentamicin. An appropriate cell number from each of the samples was then cloned in semi-solid (0.33% (w/v)) noble agar in 6-well microtiter plates.

K562 cells [4] = conditions: survival curve studies (Karagiannis, Lobachevsky and Martin 2000); cited from earlier work
plasmid DNA [5] = experiment: Plasmid DNA breakage, ^123I/^125I double isotope method; assay type: biochemical
Excerpt: The experimental design exploits the plasmid DNA assay system, and agarose gel electrophoresis, as described previously to evaluate DNA breakage by the labelled minor groove binding DNA ligand, ^125I-iodoHoechst 33258 (Lobachevsky, Karagiannis and Martin 2004).
The accumulation of DNA single-stranded breaks and DNA double-stranded breaks is monitored by quantitation of the decline in the fraction of intact supercoiled plasmid (S), and the corresponding increase in the fractions of relaxed (R) and linear (L) species, with the progressive accumulation of decay events. Various assumptions enable the derivation of the relationship between the parameters S, R and L (or their normalised counterparts S′, R′ and L′), the number of decay events (n), and for example, the yield of double-stranded breaks per decay (d) of isotope in DNA-bound ligand. […] Accordingly, a double isotope strategy was developed, using a mixture of ^123I- and ^125I-iodoHoechst 33258. This approach yields a ratio d values, providing an estimate of the relative efficiency (^123I relative to ^125I) for double-strand breaks per decay, which is independent of f.
The basis of the double isotope method is apparent from the following relationship:
Where n1 is the number of ^123I decays, and n1m is the maximum (ie at time=infinity) number of ^123I decays.
A plot of the LHS term of the above equation versus n2 (the number of ^125I decay events in the incubation mixture) yields a two phase curve, the 2nd phase of which approaches a straight line (when n1=n1m). The values for the apparent breakage DNA dsb efficiency of ^123I and ^125I decays (da1 and da2, respectively) are obtained from the y intercept and from the gradient of the asymptote of the second phase of the curve, as shown in FIG. 14.
The apparent breakage efficiency is related to the actual efficiency of DNA-bound decay events, d, by the expression: da=df+δA
Where δA is the term for the “external” component of damage, arising from decay of non-DNA-bound isotope, which can be ignored because of the particular conditions of the
[formula] experiment, particularly, a low DNA concentration, A. Thus analysis of the data as exemplified in FIG. 14 provides the ratio of breakage efficiencies of ^123I versus ^125I decays.

DNA = conditions: literature values; cited from earlier work
plasmid DNA [6] = experiment: Plasmid DNA breakage, ^124I/^125I double isotope experiments; assay type: biochemical
Excerpt: In experiments exactly analogous to those described in Example 25, induction of DNA double-strand breaks was investigated for ^124I-iodoHoechst 33258. The results of preliminary experiments (to our knowledge the first such experiments done with DNA-associated ^124I) are shown in FIG. 15 and Table 4.

K562 nuclei [7] = experiment: Nuclear fluorescence of K562 cells after photolytic deiodination (quantitative fluorescence microscopy); assay type: cell-based, human
Method: The delivery of ortho-iodoHoechst to K562 nuclei following incubation of cells with the acylhydrazone linked transferrin-ortho-iodoHoechst conjugate was examined by quantitative fluorescence microscopy, after photolytic deiodination. K562 cells in RPMI 1640 containing 3% FBS, 20 mM HEPES and 80 I.U./ml gentamicin were incubated with the acylhydrazone linked conjugate ([…], conjugation number 1.5) for 24 hours at 37° C. Following incubation the cells were irradiated with 200 Jm^−2 UVA to generate in situ the dehalogenated ligand, which is much more fluorescent than the iodinated ligand. The cells were then washed by centrifugation and the cell-pellet was resuspended in 50 μl PBS without Ca^2+/Mg^2+. Aliquots (20 μl) were placed onto microscope slides and were allowed to air-dry. Prior to microscopy a drop of 30% PBS and 100 μM dithiothreitol in Tissuetek was added to the cells. K562 cells were observed using a fluorescence microscope (Zeiss) and a standard Hoechst filter set. Analysis of nuclear fluorescence was performed using a Bio-Rad Molecular Imager® Fx (Bio-Rad Laboratories, Hercules, Calif., USA) and Quantity One™ 4.1.1 software.

[8] = incubation period between 4-20 hours

Question: With “amide linked meta-^127I/^125I-iodoHoechst-transferrin conjugate: meta-^127I/^125I-iodoHoechst conjugated to transferrin via an amide linkage (Example 16, FIG. 4)” as the compound, how does the “rate of increase of cell-associated ^125I-activity” value (K562 cells [1]; first 4 hours of incubation) read?
Answer: ~3.6 fmoles ^125I-ligand/cell/minute

Question: And the “rate of increase of cell-associated ^125I-activity” value (K562 cells [1]; [8])?
Answer: ~2.6 fmoles ^125I-ligand/cell/minute

Question: What about the “rate of increase of nuclear-associated ^125I-activity” value (K562 nuclei [2]) of the same compound?
Answer: 0.13 fmole ^125I-ligand/cell/minute

Question: What about the “dose required to produce on average one lethal event per cell (D37)” value (K562 cells [3]) of the same compound?
Answer: 8.9 μCi/ml

Question: Which results are given for “acylhydrazone linked meta-^127I/^125I-iodoHoechst-transferrin conjugate: meta-^127I/^125I-iodoHoechst conjugated to thiolated transferrin via an acylhydrazone linkage (Example 15, FIG. 3)”?
Answer: rate of increase of cell-associated ^125I-activity (K562 cells [1]; first 4 hours of incubation): ~10.4 fmoles ^125I-ligand/cell/minute; rate of increase of cell-associated ^125I-activity (K562 cells [1]; [8]): ~5.7 fmoles ^125I-ligand/cell/minute; rate of increase of nuclear-associated ^125I-activity (K562 nuclei [2]): 0.38 fmole ^125I-ligand/cell/minute; dose required to produce on average one lethal event per cell (D37) (K562 cells [3]): 3.8 μCi/ml

Question: Which results are given for “^125I-transferrin: ^125I-labelled human diferric transferrin, unconjugated comparator [reference compound]”?
Answer: rate of increase of cell-associated ^125I-activity (K562 cells [1]; after first 2 hours until approximately 4-5 hours): approximately 0.8 fmoles ^125I-ligand/cell/minute; rate of increase of cell-associated ^125I-activity (K562 cells [1]; approximately the first 2 hours of incubation): approximately 5.2 fmoles ^125I-ligand/cell/minute; rate of decrease in cell-associated ^125I-activity (K562 cells [1]; incubation period between 5-20 hours): approximately 0.2 fmoles ^125I-ligand/cell/minute; accumulation of ^125I-activity in the nuclei (K562 nuclei [2]): not observed; dose required to produce on average one lethal event per cell (D37) (K562 cells [3]): 31.8 μCi/ml

Question: For `CN1CCN(c2ccc3nc(-c4ccc5nc(-c6ccc(O)c(I)c6)[nH]c5c4)[nH]c3c2)CC1` [^125I-iodoHoechst 33258, reference compound], which “decays corresponding to a lethal event” value (K562 cells [4]) is on record?
Answer: about 130 ^125I decays per nucleus

Question: What about the “da2(^125I), apparent DNA dsb breakage efficiency” value (plasmid DNA [5]; DMSO added to 10% (D series)) of the same compound?
Answer: 0.252 and 0.248 and 0.258

Question: And the “da2(^125I), apparent DNA dsb breakage efficiency” value (plasmid DNA [5]; aqueous buffer (N series))?
Answer: 0.413 and 0.397 and 0.474

Question: With `Cc1c2oc3c(C)ccc(C(=O)N[C@@H]4C(=O)N[C@H](C(C)C)C(=O)N5CCC[C@H]5C(=O)N(C)CC(=O)N(C)[C@@H](C(C)C)C(=O)O[C@@H]4C)c3nc-2c(C(=O)N[C@@H]2C(=O)N[C@H](C(C)C)C(=O)N3CCC[C@H]3C(=O)N(C)CC(=O)N(C)[C@@H](C(C)C)C(=O)O[C@@H]2C)c(N)c1=O` [Actinomycin D] (I: T[dV]P[Sar][NMeV] / II: T[dV]P[Sar][NMeV]; ester I:1-I:C, II:1-II:C; linker I:N-II:N via Actinocin(9to1)) as the compound, how does the “association constant for equilibrium binding to DNA (affinity)” value (DNA) read?
Answer: about 10^6 M^−1

Question: Which “efficiency of DNA-associated decays in DNA double-strand break induction” value (plasmid DNA [6]; compared with the ^123I counterpart) does the source give for `CN1CCN(c2ccc3nc(-c4ccc5nc(-c6ccc(O)c(I)c6)[nH]c5c4)[nH]c3c2)CC1` [^124I-iodoHoechst 33258] here?
Answer: at least as efficient as those of the ^123I counterpart

Question: What about the “da1(^124I)/da2(^125I)” value (plasmid DNA [6]; preliminary experiments) of the same compound?
Answer: 0.76 and 0.71 and 0.82 and 0.75

Question: What about the “Average da1(^124I)/da2(^125I)” value (plasmid DNA [6]; samples A2, A3, B1, B2) of the same compound?
Answer: 0.76 ± 0.05

Question: For `COc1cccc2c1C(=O)c1c(O)c3c(c(O)c1C2=O)C[C@@](O)(C(=O)CO)C[C@@H]3O[C@H]1C[C@H](N)[C@H](O)[C@H](C)O1` [doxorubicin], which “association constant for equilibrium binding to DNA (affinity)” value (DNA) is on record?
Answer: about 10^6 M^−1

Question: For “acylhydrazone linked transferrin-ortho-iodoHoechst conjugate: transferrin linked to ortho-iodoHoechst via an acylhydrazone linkage, conjugation number 1.5”, which “nuclear fluorescence in K562 cell nuclei” value (K562 nuclei [7]; conjugation number 1.5, 24 hours at 37° C., then 200 Jm^−2 UVA) is on record?
Answer: significant fluorescence

Question: And the “inhibition of nuclear fluorescence” value (K562 nuclei [7]; in the presence of 100-fold molar excess unmodified transferrin)?
Answer: largely inhibited

Question: With “disulphide linked meta-^127I/^125I-iodoHoechst-transferrin conjugate: meta-^127I/^125I-iodoHoechst conjugated to thiolated transferrin via a disulphide linkage (Example 14, FIG. 2)” as the compound, how does the “rate of increase of cell-associated ^125I-activity” value (K562 cells [1]; first 4 hours of incubation) read?
Answer: approximately 7.2 fmoles ^125I-ligand/cell/minute

Question: What about the “rate of increase of cell-associated ^125I-activity” value (K562 cells [1]; [8]) of the same compound?
Answer: approximately 6.1 fmoles ^125I-ligand/cell/minute

Question: What about the “rate of increase of nuclear-associated ^125I-activity” value (K562 nuclei [2]) of the same compound?
Answer: 0.21 fmole ^125I-ligand/cell/minute

Question: What about the “dose required to produce on average one lethal event per cell (D37)” value (K562 cells [3]) of the same compound?
Answer: 6.0 μCi/ml
